Assay [1] concerns aged C57BL6/J mice. Briefly: 2-PMPA treatment of aged C57BL6/J mice: muscle function, muscle mass, frailty, survival, plasma cytokines. The class given is in vivo. Here is the method:
To determine whether 2-PMPA treatment could delay muscle function loss in aged animals, 15-month old C57BL6/J mice were treated with 100 mg/kg of 2-PMPA IP daily for 5 months and monthly body weight, grip strength, compound muscle action potential (CMAP), open field behavior, end stage muscle weights and survival were monitored.
After 5 months of treatment, 2-PMPA treated animals were moving more in the open field apparatus.

For assay [2], the system named is aged C57BL6/J mice. Described as above. The class given is in vivo. As to conditions: 15-month old WT mice, 100 mg/kg, 5 days per week for 5 months, vs vehicle.
Setting [3] is: 20 weeks of 2-PMPA treatment, plasma.

The structures appear in SMILES notation.

The text below walks through data of patent US20250064948A1, “GCPII INHIBITION FOR THE TREATMENT OF SARCOPENIA AND AGING” (The Johns Hopkins University, priority 2022, published 2025).

Consider `O=C(O)CCC(CP(=O)(O)O)C(=O)O` (stereo not shown) [Compound 2-PMPA, 2-(phosphonomethyl) pentanedioic acid], for which the “calf muscle area measured by MRI” value in the assay on aged C57BL6/J mice [1] (2 months on treatment, vs vehicle treated mice) was “significantly greater”. Moreover, the gastrocnemius muscle weights entry with aged C57BL6/J mice [1] (5 months of treatment, vs vehicle treated mice) was “significantly increased”. Also, the “survival after 5 months of treatment” value in the assay with aged C57BL6/J mice [1] (15-month old C57BL6/J mice, 100 mg/kg 2-PMPA IP, 5 months, vehicle 8%) was found to be 58%. In addition, the “median survival exceeding the vehicle mice” value in the assay on aged C57BL6/J mice [1] (15-month old C57BL6/J mice, 100 mg/kg 2-PMPA, vs vehicle) is reported as 106 days. In the assay with aged C57BL6/J mice [1] (setting [3]), the “plasma IFN-gamma” value is “reduced”, the “plasma IL-1beta” value was “reduced” and the “plasma TNF-alpha” value is reported as “reduced”. The frailty index scores result in the assay with aged C57BL6/J mice [1] (after 5 months of treatment, vs vehicle-treated mice) is on record as “significantly reduced”. The body weight loss entry in the assay with aged C57BL6/J mice [1] (after 5 months on 2-PMPA therapy, vs vehicle treated mice) is reported as “significant delay”. Further, in the assay on aged C57BL6/J mice [1] (old mice treated with 2-PMPA vs vehicle treated old mice), the “gastrocnemius muscle fiber cross sectional area (CSA)” value is listed as “significantly larger”. Also, in the assay on aged C57BL6/J mice [2], the “compound muscle action potential (CMAP) in the foot muscles” value is “significantly improved”, the grip strength entry is “significantly improved” and the “movement in open field” value is “significantly improved”.
